Laboratory results: patent EP0469548B1, “4-Amino-delta4-steroids and their use as 5alpha-reductase inhibitors” (MERRELL PHARMACEUTICALS INC., priority 1990, dated 1992)

biological target: T1, steroid 5α-reductase enzyme (Homo sapiens, UniProt P31213); test: 5α-reductase inhibition in microsomal preparations (conversion of testosterone to dihydrotestosterone, HPLC); type: biochemical
T1 construct: Microsomal preparations of the steroid 5α-reductase enzyme (protein) were obtained from human prostate tissue; from tissue; host or cells: human prostate tissue (microsomal preparation)
T1 sequence (P31213 1-254): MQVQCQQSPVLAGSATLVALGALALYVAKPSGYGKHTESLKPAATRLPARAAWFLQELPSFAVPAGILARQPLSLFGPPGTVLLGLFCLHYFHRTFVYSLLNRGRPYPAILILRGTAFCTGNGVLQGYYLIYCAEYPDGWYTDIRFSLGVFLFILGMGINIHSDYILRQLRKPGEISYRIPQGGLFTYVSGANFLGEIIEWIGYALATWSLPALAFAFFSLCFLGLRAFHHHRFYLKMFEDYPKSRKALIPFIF
Experimental: Microsomal preparations of the steroid 5α-reductase enzyme (protein) were obtained from human prostate tissue and stored in aliquots. Protein concentration was determined prior to use of the samples. In the method itself, individual assays for 5α-reductase activity contained 0.1M phosphate citrate buffer, pH 5.6, 1mM EDTA, 7 to 22 µg of microsomal protein, 1mM NADPH, 5 mM glucose-6-phosphate, 1 IU/ml glucose-6-phosphate dehydrogenase, 1,2-³H-testosterone, and test compound, dissolved in dimethyl sulfoxide and then diluted in phosphate-citrate buffer to yield a final assay concentration of 0.1% (v/v) dimethyl sulfoxide. The same buffer and the same quantity of dimethyl sulfoxide, without any test compound was used for the control assays. The total assay volume was 100 µl and assays were performed in duplicate. The reaction was initiated by the addition of the testosterone, and incubated for 30 minutes at 25°C. The assay is linear with time to 30 minutes.
Depending on the nature of the inhibition, testosterone concentration was typically varied from 0.15 µM (approximately 0.5 Km) to 10 Km with radioactive label constant at 0.15 µCi per assay. The amount of test compound added was varied to provide final concentrations of 1 nM to 100 µM. The reaction was quenched by the addition of 50 volumes of chloroform:methanol (2:1). The steroids were then extracted and separated by high pressure liquid chromatography and the amounts of testosterone and dihydrotestosterone present were measured to determine the percent conversion of testosterone to dihydrotestosterone and to calculate the 5α-reductase activity. The activity of the test compound was then expressed as the IC₅₀, or the concentration of test compound that produced a 50% inhibition of the testosterone conversion. When compounds of the present invention were tested in this way, the following results were observed: […]

Row | Structure (SMILES) | IC50
1 | CC(C)(C)NC(=O)[C@H]1CC[C@H]2[C@@H]3CCC4=C(N)C(=O)CC[C@]4(C)[C@H]3CC[C@]12C [4-Amino-N-(1,1-dimethylethyl)-3-oxoandrost-4-ene-17β-carboxamide] | 59 nM
2 | CC(=O)[C@H]1CC[C@H]2[C@@H]3CCC4=C(N)C(=O)CC[C@]4(C)[C@H]3CC[C@]12C [4-Aminopregn-4-ene-3,20-dione] | 50 nM
3 | C[C@H](CO)[C@H]1CC[C@H]2[C@@H]3CCC4=C(N)C(=O)CC[C@]4(C)[C@H]3CC[C@]12C [(20S)-4-Amino-21-hydroxy-20-methylpregn-4-en-3-one] | 54 nM
4 | CC(C)N(C(=O)[C@H]1CC[C@H]2[C@@H]3CCC4=C(N)C(=O)CC[C@]4(C)[C@H]3CC[C@]12C)C(C)C [4-Amino-N,N-bis(1-methylethyl)-3-oxoandrost-4-ene-17β-carboxamide] | 104 nM
